In ChEMBL document CHEMBL5465560, “Selectivity Literature for EUbOPEN Chemogenomic Library” (2024):

Tests used:
[1] = molecular target: Tyrosine-protein kinase Lyn (Homo sapiens, UniProt P07948); test: Selectivity interaction (SelectScreen profiling (Invitrogen)) EUB0000607a LYN; conditions: at 2 µM
[2] = molecular target: Ribosomal protein S6 kinase alpha-4 (Homo sapiens) (UniProt O75676); test: Selectivity interaction (Upstate Kinase Profiler service (Millipore)) EUB0000056c RPS6KA4; conditions: at 1 µM
Sequence of Ribosomal protein S6 kinase alpha-4 (Homo sapiens) (O75676 whole entry, looked up): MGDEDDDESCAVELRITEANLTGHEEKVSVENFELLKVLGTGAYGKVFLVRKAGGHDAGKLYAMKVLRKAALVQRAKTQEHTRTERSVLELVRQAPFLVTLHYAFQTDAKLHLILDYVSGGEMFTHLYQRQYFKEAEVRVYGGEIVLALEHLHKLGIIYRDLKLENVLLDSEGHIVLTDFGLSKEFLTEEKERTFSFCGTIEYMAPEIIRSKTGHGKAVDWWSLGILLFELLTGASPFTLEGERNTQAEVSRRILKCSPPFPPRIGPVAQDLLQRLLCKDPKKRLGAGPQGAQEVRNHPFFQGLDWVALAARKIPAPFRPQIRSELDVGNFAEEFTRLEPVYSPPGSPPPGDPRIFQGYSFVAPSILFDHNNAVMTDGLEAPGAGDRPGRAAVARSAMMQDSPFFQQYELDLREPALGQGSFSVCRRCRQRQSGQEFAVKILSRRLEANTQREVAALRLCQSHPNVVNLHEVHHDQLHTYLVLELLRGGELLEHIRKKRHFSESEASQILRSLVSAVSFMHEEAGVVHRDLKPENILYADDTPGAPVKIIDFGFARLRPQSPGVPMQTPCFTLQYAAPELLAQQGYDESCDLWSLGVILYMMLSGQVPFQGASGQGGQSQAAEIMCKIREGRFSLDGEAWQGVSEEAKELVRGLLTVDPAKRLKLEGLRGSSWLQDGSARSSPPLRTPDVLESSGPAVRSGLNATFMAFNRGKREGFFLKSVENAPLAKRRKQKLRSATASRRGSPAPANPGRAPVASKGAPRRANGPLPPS

[3] = molecular target: T1, Ephrin type-B receptor 3 (Homo sapiens) (UniProt P54753); test: Selectivity interaction (ProQinase) EUB0000171b EPHB3
T1 sequence (whole entry): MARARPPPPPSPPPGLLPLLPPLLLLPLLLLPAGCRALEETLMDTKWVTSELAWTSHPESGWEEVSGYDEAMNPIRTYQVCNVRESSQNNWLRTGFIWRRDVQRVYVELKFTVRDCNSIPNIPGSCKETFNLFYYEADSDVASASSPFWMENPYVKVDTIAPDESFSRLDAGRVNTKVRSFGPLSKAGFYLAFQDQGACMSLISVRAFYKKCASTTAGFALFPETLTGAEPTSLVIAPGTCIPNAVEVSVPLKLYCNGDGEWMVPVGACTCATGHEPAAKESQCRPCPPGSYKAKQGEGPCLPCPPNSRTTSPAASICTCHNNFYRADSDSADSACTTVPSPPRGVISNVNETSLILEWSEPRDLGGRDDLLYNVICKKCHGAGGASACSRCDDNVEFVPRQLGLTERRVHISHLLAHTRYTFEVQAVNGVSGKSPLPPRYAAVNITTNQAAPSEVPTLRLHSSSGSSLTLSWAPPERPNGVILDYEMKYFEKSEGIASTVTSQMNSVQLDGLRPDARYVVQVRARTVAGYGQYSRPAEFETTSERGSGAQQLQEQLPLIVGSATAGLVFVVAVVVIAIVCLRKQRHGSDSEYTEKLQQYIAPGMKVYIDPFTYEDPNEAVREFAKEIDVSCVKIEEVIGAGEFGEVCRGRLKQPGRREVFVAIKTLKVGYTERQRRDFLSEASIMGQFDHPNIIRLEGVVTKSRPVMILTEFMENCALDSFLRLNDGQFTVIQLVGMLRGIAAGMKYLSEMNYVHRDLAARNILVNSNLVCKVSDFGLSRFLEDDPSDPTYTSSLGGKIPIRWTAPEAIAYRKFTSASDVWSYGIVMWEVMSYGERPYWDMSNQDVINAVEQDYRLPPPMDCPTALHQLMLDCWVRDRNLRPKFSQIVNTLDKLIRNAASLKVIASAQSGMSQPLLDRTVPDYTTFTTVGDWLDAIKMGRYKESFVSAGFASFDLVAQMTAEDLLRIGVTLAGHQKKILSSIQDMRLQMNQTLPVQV

[4] = molecular target: Mitogen-activated protein kinase 10 (Homo sapiens, UniProt P53779); test: Selectivity interaction (KinomeScan (DiscoverX)) EUB0000595a MAPK10; conditions: at 10 µM
Sequence of Mitogen-activated protein kinase 10 (P53779 whole entry): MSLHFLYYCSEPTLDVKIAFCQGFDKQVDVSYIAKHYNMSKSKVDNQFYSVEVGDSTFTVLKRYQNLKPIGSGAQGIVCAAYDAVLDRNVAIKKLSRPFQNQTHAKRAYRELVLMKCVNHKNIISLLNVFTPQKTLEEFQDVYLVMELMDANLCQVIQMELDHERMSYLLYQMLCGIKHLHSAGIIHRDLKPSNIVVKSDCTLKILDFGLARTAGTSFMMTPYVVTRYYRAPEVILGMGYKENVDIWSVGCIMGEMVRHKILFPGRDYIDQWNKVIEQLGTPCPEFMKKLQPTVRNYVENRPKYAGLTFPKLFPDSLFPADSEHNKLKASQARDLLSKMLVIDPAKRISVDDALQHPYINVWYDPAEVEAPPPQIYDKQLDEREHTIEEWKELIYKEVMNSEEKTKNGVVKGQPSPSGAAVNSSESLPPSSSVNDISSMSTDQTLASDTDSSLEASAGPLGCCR

[5] = molecular target: T2, Bone morphogenetic protein receptor type-2 (Homo sapiens) (UniProt Q13873); test: Selectivity interaction (Ambit KINOMEscan and KiNATiv profiling in Jurkat cells) EUB0000090b BMPR2; type: cell-based; conditions: at 1 µM
T2 sequence (whole entry): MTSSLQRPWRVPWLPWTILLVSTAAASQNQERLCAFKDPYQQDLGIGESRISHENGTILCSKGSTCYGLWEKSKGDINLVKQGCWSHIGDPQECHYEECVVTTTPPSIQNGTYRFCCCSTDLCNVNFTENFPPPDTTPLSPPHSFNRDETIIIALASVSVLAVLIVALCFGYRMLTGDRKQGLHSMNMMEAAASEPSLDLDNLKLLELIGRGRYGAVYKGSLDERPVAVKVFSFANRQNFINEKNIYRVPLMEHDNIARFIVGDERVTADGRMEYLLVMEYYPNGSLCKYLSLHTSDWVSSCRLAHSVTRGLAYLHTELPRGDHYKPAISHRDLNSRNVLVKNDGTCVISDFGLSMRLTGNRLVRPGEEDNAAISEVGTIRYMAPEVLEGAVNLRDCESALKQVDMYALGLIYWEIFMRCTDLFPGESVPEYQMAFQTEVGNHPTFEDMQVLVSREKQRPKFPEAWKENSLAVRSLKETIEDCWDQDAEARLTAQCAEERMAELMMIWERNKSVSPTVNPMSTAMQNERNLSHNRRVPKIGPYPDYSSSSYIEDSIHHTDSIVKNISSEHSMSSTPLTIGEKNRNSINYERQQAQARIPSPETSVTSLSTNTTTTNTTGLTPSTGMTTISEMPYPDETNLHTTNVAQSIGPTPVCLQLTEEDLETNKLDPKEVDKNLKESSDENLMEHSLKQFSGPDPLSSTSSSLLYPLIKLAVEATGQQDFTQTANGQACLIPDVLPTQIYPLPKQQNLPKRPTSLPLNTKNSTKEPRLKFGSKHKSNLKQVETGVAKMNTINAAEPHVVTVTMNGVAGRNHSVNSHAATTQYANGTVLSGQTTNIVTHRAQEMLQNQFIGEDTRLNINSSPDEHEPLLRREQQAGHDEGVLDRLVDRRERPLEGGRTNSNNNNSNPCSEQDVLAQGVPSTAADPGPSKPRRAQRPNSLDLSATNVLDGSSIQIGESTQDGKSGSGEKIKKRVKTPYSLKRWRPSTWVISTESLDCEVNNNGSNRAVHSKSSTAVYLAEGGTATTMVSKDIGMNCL

[6] = molecular target: Casein kinase II subunit alpha (Homo sapiens, UniProt P68400); test: Selectivity interaction (KinomeScan (DiscoverX)) EUB0000655a CSNK2A1; conditions: at 10 µM
Sequence of Casein kinase II subunit alpha (P68400 whole entry, looked up): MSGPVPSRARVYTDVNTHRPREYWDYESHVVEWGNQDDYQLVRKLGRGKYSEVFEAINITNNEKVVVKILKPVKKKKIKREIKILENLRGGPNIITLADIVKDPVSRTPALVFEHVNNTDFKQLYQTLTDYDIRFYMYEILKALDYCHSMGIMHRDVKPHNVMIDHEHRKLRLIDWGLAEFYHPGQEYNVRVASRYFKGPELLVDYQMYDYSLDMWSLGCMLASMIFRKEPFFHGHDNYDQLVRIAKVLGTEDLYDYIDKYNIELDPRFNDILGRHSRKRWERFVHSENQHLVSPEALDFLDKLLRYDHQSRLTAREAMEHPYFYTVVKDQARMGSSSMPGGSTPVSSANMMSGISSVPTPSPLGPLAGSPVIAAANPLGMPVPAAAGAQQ

[7] = molecular target: Tyrosine-protein kinase Fes/Fps (Homo sapiens) (UniProt P07332); test: Selectivity interaction (KinomeScan (DiscoverX)) EUB0000229b FES; conditions: at 10 µM
Sequence of Tyrosine-protein kinase Fes/Fps (Homo sapiens) (P07332 whole entry): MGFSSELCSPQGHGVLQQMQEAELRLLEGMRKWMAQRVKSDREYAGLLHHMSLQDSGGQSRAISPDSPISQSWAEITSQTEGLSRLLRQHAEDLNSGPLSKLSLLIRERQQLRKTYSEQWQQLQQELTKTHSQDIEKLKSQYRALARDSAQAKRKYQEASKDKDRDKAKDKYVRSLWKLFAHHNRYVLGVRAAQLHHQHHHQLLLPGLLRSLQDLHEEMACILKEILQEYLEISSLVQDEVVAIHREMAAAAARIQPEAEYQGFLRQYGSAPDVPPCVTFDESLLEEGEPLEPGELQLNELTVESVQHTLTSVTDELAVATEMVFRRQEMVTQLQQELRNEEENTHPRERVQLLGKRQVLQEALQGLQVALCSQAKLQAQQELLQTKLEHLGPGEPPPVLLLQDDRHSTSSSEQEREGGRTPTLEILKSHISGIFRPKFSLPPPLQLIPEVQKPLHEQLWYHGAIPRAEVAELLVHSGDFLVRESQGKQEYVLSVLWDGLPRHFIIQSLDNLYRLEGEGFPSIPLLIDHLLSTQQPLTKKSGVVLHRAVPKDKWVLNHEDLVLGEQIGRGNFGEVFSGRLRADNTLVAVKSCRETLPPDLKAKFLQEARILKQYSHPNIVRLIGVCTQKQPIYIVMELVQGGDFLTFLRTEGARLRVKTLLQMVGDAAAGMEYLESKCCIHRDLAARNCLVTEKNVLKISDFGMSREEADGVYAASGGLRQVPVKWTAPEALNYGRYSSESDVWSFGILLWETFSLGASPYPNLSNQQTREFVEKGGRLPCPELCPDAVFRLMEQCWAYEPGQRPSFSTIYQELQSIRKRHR

Sequence of Tyrosine-protein kinase Lyn (P07948 2-512 limits assumed): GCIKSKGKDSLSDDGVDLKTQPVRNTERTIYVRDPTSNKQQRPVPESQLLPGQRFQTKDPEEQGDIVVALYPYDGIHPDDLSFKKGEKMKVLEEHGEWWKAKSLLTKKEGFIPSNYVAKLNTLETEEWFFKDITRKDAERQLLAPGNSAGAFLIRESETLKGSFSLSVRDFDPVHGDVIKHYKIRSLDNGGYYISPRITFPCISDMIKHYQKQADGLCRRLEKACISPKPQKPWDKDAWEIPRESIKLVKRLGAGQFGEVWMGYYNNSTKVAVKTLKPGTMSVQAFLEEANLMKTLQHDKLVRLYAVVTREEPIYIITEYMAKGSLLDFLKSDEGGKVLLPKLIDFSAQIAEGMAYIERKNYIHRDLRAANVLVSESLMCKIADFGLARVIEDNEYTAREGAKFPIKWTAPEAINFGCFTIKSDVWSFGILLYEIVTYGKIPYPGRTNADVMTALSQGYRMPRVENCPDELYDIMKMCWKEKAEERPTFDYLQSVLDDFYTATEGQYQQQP

CNC(=O)Nc1ccc(-c2nc(N3CC4CCC(C3)O4)c3cnn(C4CCC5(CC4)OCCO5)c3n2)cc1
% of inhibition [1]: 7%

Cc1ccc(-c2ccc3c(ccc4sc5c(c43)NC[C@@H](C)NC5=O)n2)cn1
% of inhibition [2]: -19%

C=CC(=O)Nc1cccc(C(=O)Nc2ccc(Nc3cc(-c4[nH]c(SC)nc4C)ccn3)cc2)c1
% of control ([3]; at 1 µM): 106% | % of control ([3]; at 5 µM): 108%

COCC(=O)NC/C=C/c1ccc2ncnc(Nc3ccc(Oc4ccc(C)nc4)c(C)c3)c2c1 [CP-724714]
% of control [4]: 68%

CN(C)C/C=C/C(=O)Nc1ccc(C(=O)N2CCCC(Nc3ncc(Cl)c(-c4c[nH]c5ccccc45)n3)C2)cc1 (stereo not drawn)
% of control [5]: 100%

CN(C)CCOc1ccc(-c2nc(-c3ccncc3)c(-c3ccc4c(c3)CC/C4=N\O)[nH]2)cc1
% of control [6]: 79%

COc1cc(N(C)c2ccnc3ccc(C(F)(F)F)cc23)cc(OC)c1OC
% binding [7]: 100%
